Measurements as given in patent US20240279201A1, “DUAL WNT SIGNALING PATHWAY INHIBITORS AND AMPK ACTIVATORS FOR TREATMENTS OF DISEASE” (priority 2021, published 2024).
Several values for one entry are separate records, joined by “and”; a condition that tells them apart may be missing. Identical values can stand only once. Entries after “also recorded” stand apart in the source; their conditions may differ.

Columns and labels:
Hygroscopicity = assay type: physicochemical; conditions: HCl salt
From the text: This Example provides evidence to access the therapeutic potential of simultaneously targeting Wnt signaling and AMPK pathways as novel anti-CRC therapeutic strategy. […] In addition, the chemical structure of YA6060 contains multiple C—H bonds that are liable to P450-mediated oxidations in the liver. Therefore, novel YA6060 analogs with acceptable non-hygroscopicity along with excellent metabolic stability are highly desirable for its further development.
Non-hygroscopic salts of YA6060. YA6060 is an HCl salt with high hygroscopicity. YA6060 can readily absorb moisture from the environment that limits the stability and the further therapeutic application of the compound. Non-hygroscopic salts of YA6060 are generated by screening the anionic of the neutral amino parent YA6060 with a panel of acids that has been reported to form acceptably non-hygroscopic salts. Specific acids include valproic (1), maleic (2), tartaric (3), oxalic (4) and pamoic (5) acids, to get the corresponding salts.

[1] = Toxicity in normal HEK293 cells; assay type: cell-based; conditions: human
Experimental: YA6060 has an excellent druglike profile. […] The ADMET and PK properties of YA6060 was determined.

[2] = test system: Wnt/β-Catenin signaling pathway; assay: Wnt signaling luciferase (TOPflash) reporter gene assay; assay type: cell-based; conditions: luciferase reporter gene assay; mean of three independent experiments; read-out: IC50 (nM) to inhibit the Wnt signaling activity
From the text: A dual-luciferase gene reporter assay was used to test inhibitory activities of new compounds on Wnt signaling. […] Therefore, the effects of new compounds on AMPK was examined. […]

physchem = assay: physchem
Experimental: The ADMET and PK properties of YA6060 was determined.
Determination of physiochemical properties. The profiles of six selected analogs is estimated in silico, and selected Axin stabilizers are evaluated in in vitro assays: the aqueous solubility is determined using a multiscreen solubility filter plate (Millipore, Billerica, MA) coupled with LC-MS/MS, as performed for the already synthesized YA6060 analogs; the cell viability assays on selected analogs is measured using HEK293 cells; the intestinal permeability by determining the transport from the apical to the basolateral (A to B) in Caco-2 monolayers; the metabolic stability by incubating the compounds with mouse microsomes and liver tissue S9 fraction and analyzing by LC-MS/MS.

Axin 1 = Axin 1 (Homo sapiens (Human), UniProt O15169); assay: Western blotting of Axin 1 in HEK293 cells; assay type: cell-based; conditions: 100 nM, 24 h
Experimental: FIG. 6A-FIG. 6E illustrate the development of Axin stabilizers with dual activities of Wnt inhibition and AMPK activation. […] HEK293 cells were used. B&C: 100 nM compounds, 24 h. FIG. 6D is a table showing the activity profile of YA6060. F=bioavailability; soubility is aqueous solubility.
A dual-luciferase gene reporter assay was used to test inhibitory activities of new compounds on Wnt signaling. […] Axin is also reported to form a complex with AMPK and its upstream kinase LKB1 (FIG. 12A and FIG. 12B) to facilitate AMPK activation. Therefore, the effects of new compounds on AMPK was examined. […] YA6060 and its analogs had dual activities of potent Wnt signaling inhibition and AMPK activation, which were dependent on the levels of scaffolding protein Axin.

[3] = test system: DMNA-induced liver fibrosis; assay: Dimethylnitrosamine (DMNA) liver fibrosis mouse model; assay type: in vivo, C57BL/6 mice
Experimental: FIG. 4 illustrates that YA6060 protects liver from damage caused by dimethylnitrosamine (DMNA). Vehicle (top panels) or 10 mg/kg DMNA (bottom panels) was given on a Monday-Tuesday-Wednesday schedule each week; YA6060 or vehicle was given daily. After sacrifice of mice (6/group) at 4 weeks, paraffin sections were stained with Sirius Red to visualize collagen. […] Bars, 100 μm.
FIG. 10 is a graph of experimental data illustrating anti-fibrotic efficacy of YA6060 in mice. C57BL/6 mice received dimethylnitrosamine (DMNA, 10 mg/kg/d i.p. for 3d and then rest for 4d) or saline, with or without YA6060 (0.5 mg/kg/d) for 4 weeks. The fibrosis and inflammation biomarkers were examined by RT-PCR with the liver tissues.
FIG. 11A-FIG. 11C illustrate the effect of YA6060 on liver function in mice. C57BL/6 mice received dimethylnitrosamine (DMNA, 10 mg/kg/d i.p. for 3d and then rest for 4d) or saline, with or without YA6060 (0.5 mg/kg/d) for 4 weeks. The serum biochemistry was determined for alanine aminotransferase (ALT) and aspartate aminotransferase (AST) (FIG. 11A), albumin (FIG. 11B), and total bilirubin (FIG. 11C).
The effect of YA6060 treatment on the expression of fibrotic markers in LX-2 cells was examined. LX-2 cells were treated with TGF-beta to model fibrosis. Protein expression of collagen 1, vimentin, and alpha-SMA by Western blotting (FIG. 14A). mRNA expression of collagen 1, vimentin, and alpha-SMA by RT-PCR was examined (FIG. 14B). mRNA expression of genes associated with inflammation by RT-PCR was examined (FIG. 14C). The cells were treated with the indicated concentrations of YA6060 for 24 hours. *P<0.05, **P<0.01. The effect of YA6060 treatment on liver fibrosis in mice was also examined (FIG. 15). […]
Fibrosis in the liver tissues of the mice that received YA6060 treatment was quantified (FIG. 16). […] The collagen of liver tissues was stained by Sirius red (SR) and quantitated by Image J software. ***P<0.001. […]

SMILES: Cc1ccccc1-n1nnc(C(=O)Nc2ccc3cc(CN4CCNCC4)ccc3n2)c1C [YA6060]
- hygroscopicity (Hygroscopicity): highly hygroscopic
- IC50 [1]: > 100000 nM
- IC50 [2]: 4.3 nM and 4 nM
- aqueous solubility (physchem): > 75 mg/mL
- increase in aqueous solubility from FX1128 and FX2065 (physchem): over 10,000 fold
- solubility (physchem; water, aqueous solubility): > 78 mg/mL
- level of Axin 1 (Axin 1): stabilizing
- liver fibrosis (Sirius Red) ([3]; 0.5 or 5 mg/kg/day, 4 weeks): reduced dimethylnitrosamine (DMNA)-induced fibrosis; also recorded: strong protective effects
- inflammation infiltration (H&E hepatic histology) ([3]; DMNA 4 weeks): ameliorated
- liver function (serum ALT, AST, albumin, total bilirubin) ([3]; YA6060 co-treatment with DMNA): normal liver function
